This experiment deals with T1, P2X7 (Homo sapiens, UniProt Q99572).
T1 sequence (Q99572 1-595): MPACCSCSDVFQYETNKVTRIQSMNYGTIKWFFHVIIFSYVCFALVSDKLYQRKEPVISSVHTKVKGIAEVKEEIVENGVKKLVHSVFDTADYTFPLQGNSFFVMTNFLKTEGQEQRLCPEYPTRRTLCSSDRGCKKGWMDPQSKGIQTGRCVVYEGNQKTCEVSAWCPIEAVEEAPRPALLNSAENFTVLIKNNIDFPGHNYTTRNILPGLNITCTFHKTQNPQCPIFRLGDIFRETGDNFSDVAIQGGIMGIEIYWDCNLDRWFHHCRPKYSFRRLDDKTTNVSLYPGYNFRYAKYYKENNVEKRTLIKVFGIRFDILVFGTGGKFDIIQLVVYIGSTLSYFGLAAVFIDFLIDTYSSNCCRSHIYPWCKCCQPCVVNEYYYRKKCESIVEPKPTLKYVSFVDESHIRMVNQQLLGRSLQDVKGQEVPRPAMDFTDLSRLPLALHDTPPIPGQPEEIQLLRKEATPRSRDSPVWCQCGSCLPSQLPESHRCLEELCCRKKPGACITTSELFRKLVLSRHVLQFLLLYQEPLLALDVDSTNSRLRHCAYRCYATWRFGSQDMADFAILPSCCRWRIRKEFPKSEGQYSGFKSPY
In words: Plate-based flow cytometric YO-PRO-1 dye uptake compound screen in RPMI8226 cells. The class given is cell-based. Further details: endogenous in cells; host or cells: RPMI8226 cells. The settings on record: RPMI8226 cells, plate-based screen. The method, then:
RPMI8226 cells were washed thrice with low-divalent medium (LDM) (145 mM NaCl, 2 mM KCl, 0.2 mM CaCl2, 13 mM D-glucose and 10 mM HEPES, pH 7.5) and 1 × 10^5 cells were added to each well of a 96-well flat-bottomed plate. Amiloride derivatives, at 10 μM (final concentration 5 μM) or vehicle (DMSO) were added, and plates pre-incubated (37 °C, 15 min). […] Wells were washed twice with LDM (300× g, 5 min) and cells were resuspended in LDM. Data was acquired with an Attune NxT Flow Cytometer an Autosampler (Thermo Fisher Scientific). Mean fluorescent intensity (MFI) of YO-PRO-1^+ uptake was determined using FlowJo.
(In general: A flow cytometer gives signals particle by particle.)

Results on one molecule are retold here after publication PMC9496321, “6-Furopyridine Hexamethylene Amiloride Is a Non-Selective P2X7 Receptor Antagonist” (Biomolecules, 2022).

As usually defined, the EC50 is the midpoint of the concentration-response curve. Read a low EC50 as an effect from little substance. `Nc1ncnc2c1ncn2[C@@H]1O[C@H](COP(=O)(O)OP(=O)(O)OP(=O)(O)O)[C@@H](O)[C@H]1O` [ATP, adenosine 5′-triphosphate]: the EC50 is approximately 250 µM.
